Source: paper PMC2790607, “Finding of the Low Molecular Weight Inhibitors of Resuscitation Promoting Factor Enzymatic and Resuscitation Activity” (PLoS ONE, 2009)
Converted amounts (≈) assume the structure as drawn.

System: Micrococcus luteus
Test: microbe, parasite or virus in culture
Assay type: cell-based
Settings: Micrococcus luteus; lowest concentration which suppresses growth; determined during 24 hours; NI = no inhibition was observed

| Structure (SMILES) | MIC [µg/mL] |
| --- | --- |
| CC(=O)c1ccc(SC#N)c([N+](=O)[O-])c1 [VI, 4-Acetyl-2-nitrophenyl thiocyanate] | 5 (≈ 22.5 µM) |
| CCOC(=O)c1ccc(SC#N)c([N+](=O)[O-])c1 [X, 3-nitro-4-thiocyanatobenzoic acid ethyl ester] | 10 (≈ 39.6 µM) |

Same assay, conditions: NB liquid medium

| Structure (SMILES) | effect on M. luteus growth |
| --- | --- |
| CC(C)Nc1ncnc(SC#N)c1[N+](=O)[O-] [II, 4-Isopropylamino-5-nitro-6-thiocyanatopyrimidine] | had no effect on M. luteus growth |

Target: ΔDUFRpf B (Mycobacterium tuberculosis, UniProt P9WG29)
Sequence (P9WG29 whole entry, looked up, stated change not applied): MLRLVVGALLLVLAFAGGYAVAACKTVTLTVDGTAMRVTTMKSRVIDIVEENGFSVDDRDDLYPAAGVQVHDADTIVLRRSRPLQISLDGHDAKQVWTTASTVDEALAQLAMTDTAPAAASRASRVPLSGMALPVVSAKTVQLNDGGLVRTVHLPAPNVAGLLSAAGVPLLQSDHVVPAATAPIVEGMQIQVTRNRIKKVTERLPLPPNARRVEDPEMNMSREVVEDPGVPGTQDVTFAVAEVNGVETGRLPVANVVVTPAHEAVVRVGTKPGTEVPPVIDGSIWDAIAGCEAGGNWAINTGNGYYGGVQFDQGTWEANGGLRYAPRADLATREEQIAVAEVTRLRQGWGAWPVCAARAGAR
Test: not given
Assay type: binding, M. tuberculosis
Settings: modified Stern-Volmer equation; excitation 280 nm, emission 340 nm

| Structure (SMILES) | accessible fraction of ΔDUFRpfB tryptophanes (fa) [%] |
| --- | --- |
| [I-].[K+] [iodide, reference compound] | ~40 |

System: M. tuberculosis "non-culturable" cells
Test: not given
Assay type: cell-based, Mycobacterium tuberculosis
Settings: 10 µg/ml, MPN assay, versus untreated resuscitating cells

| Structure (SMILES) | effect on resuscitation of M. tuberculosis "non-culturable" cells |
| --- | --- |
| COc1ncnc(SC#N)c1[N+](=O)[O-] [I, 4-Methoxy-5-nitro-6-thiocyanatopyrimidine] | had no influence on the resuscitation kinetics |
| CCOC(=O)c1ccc(SC#N)c([N+](=O)[O-])c1 [X, 3-nitro-4-thiocyanatobenzoic acid ethyl ester] | increased time which need for developing of visible growth in the MPN assay and decreased the final values of MPN |

Same assay, conditions: inhibitor 10 µg/ml, time 0 days

| Structure (SMILES) | MPN, logarithmic transformation of cell concentration (cells/ml) |
| --- | --- |
| CC(=O)c1ccc(SC#N)c([N+](=O)[O-])c1 [VI, 4-Acetyl-2-nitrophenyl thiocyanate] | 3.48 |
| CCOC(=O)c1ccc(SC#N)c([N+](=O)[O-])c1 [X, 3-nitro-4-thiocyanatobenzoic acid ethyl ester] | 3.48 |

Same assay, conditions: inhibitor 10 µg/ml, time 14 days

| Structure (SMILES) | MPN, logarithmic transformation of cell concentration (cells/ml) |
| --- | --- |
| CC(=O)c1ccc(SC#N)c([N+](=O)[O-])c1 [VI, 4-Acetyl-2-nitrophenyl thiocyanate] | 3.48 |
| CCOC(=O)c1ccc(SC#N)c([N+](=O)[O-])c1 [X, 3-nitro-4-thiocyanatobenzoic acid ethyl ester] | 3.48 |

Same assay, conditions: inhibitor 10 µg/ml, time 19 days

| Structure (SMILES) | MPN, logarithmic transformation of cell concentration (cells/ml) |
| --- | --- |
| CC(=O)c1ccc(SC#N)c([N+](=O)[O-])c1 [VI, 4-Acetyl-2-nitrophenyl thiocyanate] | 3.48 |
| CCOC(=O)c1ccc(SC#N)c([N+](=O)[O-])c1 [X, 3-nitro-4-thiocyanatobenzoic acid ethyl ester] | 3.48 |

Same assay, conditions: inhibitor 10 µg/ml, time 21 days

| Structure (SMILES) | MPN, logarithmic transformation of cell concentration (cells/ml) |
| --- | --- |
| CC(=O)c1ccc(SC#N)c([N+](=O)[O-])c1 [VI, 4-Acetyl-2-nitrophenyl thiocyanate] | 3.48 |
| CCOC(=O)c1ccc(SC#N)c([N+](=O)[O-])c1 [X, 3-nitro-4-thiocyanatobenzoic acid ethyl ester] | 3.48 |

Same assay, conditions: inhibitor 10 µg/ml, time 23 days

| Structure (SMILES) | MPN, logarithmic transformation of cell concentration (cells/ml) |
| --- | --- |
| CC(=O)c1ccc(SC#N)c([N+](=O)[O-])c1 [VI, 4-Acetyl-2-nitrophenyl thiocyanate] | 3.56 |
| CCOC(=O)c1ccc(SC#N)c([N+](=O)[O-])c1 [X, 3-nitro-4-thiocyanatobenzoic acid ethyl ester] | 3.48 |

Same assay, conditions: inhibitor 10 µg/ml, time 27 days

| Structure (SMILES) | MPN, logarithmic transformation of cell concentration (cells/ml) |
| --- | --- |
| CC(=O)c1ccc(SC#N)c([N+](=O)[O-])c1 [VI, 4-Acetyl-2-nitrophenyl thiocyanate] | 3.96 |
| CCOC(=O)c1ccc(SC#N)c([N+](=O)[O-])c1 [X, 3-nitro-4-thiocyanatobenzoic acid ethyl ester] | 4.36 |

Same assay, conditions: inhibitor 10 µg/ml, time 30 days

| Structure (SMILES) | MPN, logarithmic transformation of cell concentration (cells/ml) |
| --- | --- |
| CC(=O)c1ccc(SC#N)c([N+](=O)[O-])c1 [VI, 4-Acetyl-2-nitrophenyl thiocyanate] | 4.66 |
| CCOC(=O)c1ccc(SC#N)c([N+](=O)[O-])c1 [X, 3-nitro-4-thiocyanatobenzoic acid ethyl ester] | 4.97 |

Same assay, conditions: inhibitor 10 µg/ml, time 33 days

| Structure (SMILES) | MPN, logarithmic transformation of cell concentration (cells/ml) |
| --- | --- |
| CC(=O)c1ccc(SC#N)c([N+](=O)[O-])c1 [VI, 4-Acetyl-2-nitrophenyl thiocyanate] | 5.38 |
| CCOC(=O)c1ccc(SC#N)c([N+](=O)[O-])c1 [X, 3-nitro-4-thiocyanatobenzoic acid ethyl ester] | 5.38 |

Same assay, conditions: inhibitor 10 µg/ml, time 36 days

| Structure (SMILES) | MPN, logarithmic transformation of cell concentration (cells/ml) |
| --- | --- |
| CC(=O)c1ccc(SC#N)c([N+](=O)[O-])c1 [VI, 4-Acetyl-2-nitrophenyl thiocyanate] | 5.97 |
| CCOC(=O)c1ccc(SC#N)c([N+](=O)[O-])c1 [X, 3-nitro-4-thiocyanatobenzoic acid ethyl ester] | 5.38 |

Same assay, conditions: inhibitor 10 µg/ml, time 40 days

| Structure (SMILES) | MPN, logarithmic transformation of cell concentration (cells/ml) |
| --- | --- |
| CC(=O)c1ccc(SC#N)c([N+](=O)[O-])c1 [VI, 4-Acetyl-2-nitrophenyl thiocyanate] | 6.18 |
| CCOC(=O)c1ccc(SC#N)c([N+](=O)[O-])c1 [X, 3-nitro-4-thiocyanatobenzoic acid ethyl ester] | 5.38 |

System: not given
Test: not given
Settings: not given

| Structure (SMILES) | melting point [°C] |
| --- | --- |
| COc1ncnc(SC#N)c1[N+](=O)[O-] [I, 4-Methoxy-5-nitro-6-thiocyanatopyrimidine] | 54 to 56 |
| CC(C)Nc1ncnc(SC#N)c1[N+](=O)[O-] [II, 4-Isopropylamino-5-nitro-6-thiocyanatopyrimidine] | 96 to 98 |
| CC(=O)c1ccc(SC#N)c([N+](=O)[O-])c1 [VI, 4-Acetyl-2-nitrophenyl thiocyanate] | 96 to 98 |

Target: T1, Rpf Sm (Micrococcus luteus, UniProt O86308)
T1 construct: His-tag (inferred from the pET19b vector and the Ni2+-chelation purification); made in house; host or cells: E. coli HSM174 (DE3)
T1 sequence (O86308 42-134): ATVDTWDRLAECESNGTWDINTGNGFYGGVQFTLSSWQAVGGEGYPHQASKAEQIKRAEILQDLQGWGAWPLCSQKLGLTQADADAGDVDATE
Test: Muralytic activity of Rpf, 4-MUF-3-NAG hydrolysis
Assay type: biochemical, M. luteus
Settings: not given
Experimental: The truncated form of M.luteus Rpf (RpfSm) was used for the analysis. The truncated protein contained conserved Rpf domain and additional 20 amino acids of the gene product, corresponding to the following amino acid sequence:
To determine a muralytic activity of the recombinant Rpfs', 4-methylumbelliferyl-β-D-N, N′, N″-triacetylchitotrioside (4-MUF-3-NAG) (“Sigma”, Germany) was applied. […] A number of experiments were performed in the presence of NPT compounds, in concentration range of 0.5–10 µg/ml. After 3 hours of incubation at 37°C, 2 µl of 10 M NaOH was added and the samples were frozen and kept at −20°C. […] The intensity of fluorescence was detected by the RF-5301PC fluorimeter (“SHIMADZU”, Japan) using excitation wavelength of 364 nm and a read-out of 448 nm.

| Structure (SMILES) | IC50 [µM] |
| --- | --- |
| CC(=O)c1ccc(SC#N)c([N+](=O)[O-])c1 [VI, 4-Acetyl-2-nitrophenyl thiocyanate] | 9.9 |

Same assay, conditions: pH 6.0, 3 hours at 37°C; NI = no inhibition was observed; read-out: 4-MUF-3-NAG hydrolysis IC50, Rpf Sm (converted)

| Structure (SMILES) | IC50 [µM] |
| --- | --- |
| COc1ncnc(SC#N)c1[N+](=O)[O-] [I, 4-Methoxy-5-nitro-6-thiocyanatopyrimidine] | 25 |
| CCOC(=O)c1ccc(SC#N)c([N+](=O)[O-])c1 [X, 3-nitro-4-thiocyanatobenzoic acid ethyl ester] | 10.3 |
